Source: publication PMC6237158, “HPLC–UV assay for the evaluation of inhibitors of plasma amine oxidase using crude bovine plasma” (Journal of Enzyme Inhibition and Medicinal Chemistry, 2018)
Read-outs that look alike come from different tables or passages of the source.

Key:
PAO in bovine plasma [1] = target: T1, PAO in bovine plasma (Bos taurus, UniProt Q29437); assay: Inhibitor screening without pre-incubation of bovine plasma with the inhibitor (HPLC-UV); assay type: biochemical; settings: n = 3
T1 construct: crude bovine plasma can be used as enzyme source in this assay instead of the purified enzyme; tissue Coesfelder Fleischhandelsgesellschaft, Bernd Grewe (Coesfeld, Germany); host or cells: heparinised bovine blood plasma
T1 sequence (Q29437 17-762): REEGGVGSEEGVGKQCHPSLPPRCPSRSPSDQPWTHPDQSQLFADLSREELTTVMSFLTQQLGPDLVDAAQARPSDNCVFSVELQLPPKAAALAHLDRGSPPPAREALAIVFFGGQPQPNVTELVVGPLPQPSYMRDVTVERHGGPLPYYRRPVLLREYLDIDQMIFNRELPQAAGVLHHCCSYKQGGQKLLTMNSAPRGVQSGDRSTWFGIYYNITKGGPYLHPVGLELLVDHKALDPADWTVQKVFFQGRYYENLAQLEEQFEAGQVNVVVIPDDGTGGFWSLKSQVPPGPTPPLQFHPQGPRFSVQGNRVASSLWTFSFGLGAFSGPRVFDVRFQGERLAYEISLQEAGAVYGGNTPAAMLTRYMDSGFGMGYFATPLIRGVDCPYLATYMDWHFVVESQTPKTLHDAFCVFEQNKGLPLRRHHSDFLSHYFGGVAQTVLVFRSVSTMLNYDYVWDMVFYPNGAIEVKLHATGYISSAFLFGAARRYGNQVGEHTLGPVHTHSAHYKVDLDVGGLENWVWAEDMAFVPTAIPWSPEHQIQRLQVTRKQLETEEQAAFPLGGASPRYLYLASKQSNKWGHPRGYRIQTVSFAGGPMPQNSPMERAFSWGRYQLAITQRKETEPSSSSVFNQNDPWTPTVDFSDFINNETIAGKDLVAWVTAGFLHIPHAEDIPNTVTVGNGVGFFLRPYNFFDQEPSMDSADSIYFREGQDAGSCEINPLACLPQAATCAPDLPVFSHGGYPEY
Experimental: Determination of the IC50-values of the PAO inhibitor 2-(4-phenylphenyl)acetohydrazide (16) with bovine plasma using different substrates.
General procedure for inhibitor screening without pre-incubation of bovine plasma with the inhibitor. A mixture of a DMSO solution of 4 (10 mM) (2.5 µL), a DMSO solution of the appropriate inhibitor (concentration variable) (2.5 µL) and PBS buffer (pH 7.4) (89 µL) was treated with bovine plasma (6 µL). After incubation at 37 °C for 45 min, the enzyme reaction was terminated by the addition of acetonitrile (100 µL). The sample was cooled in an ice bath for 10 min and centrifuged at 12,000 × g and 10 °C for 5 min. An aliquot of the supernatant (150 µL) was diluted with aqueous TRIS buffer (100 mM, pH 8.5 at 20 °C) (150 µL), allowed to stand at room temperature for 30 min, and analysed by HPLC. The HPLC–UV-system consisted of a Thermo Scientific Dionex UltiMate 3000 system including an autosampler and a variable wavelength detector (ThermoFisher Scientific, Germering, Germany). Separation was achieved on a Luna 3 u C8(2) analytical column (3 mm inside diameter× 150 mm, particle size 3 µm) (Phenomenex, Aschaffenburg, Germany) protected with a Phenomenex Phenyl guard column (3 mm inside diameter ×4 mm). The injection volume was 50 µL. Temperature of the autosampler was set to 10 °C, the temperature of the column oven was 20 °C. HPLC analysis was run isocratically using acetonitrile/aqueous TRIS buffer (50 mM, pH 8.5 at 20 °C) (35:65, v/v) as eluent at a flow rate of 0.4 mL/min. […] Controls with DMSO (2.5 µL) instead of a DMSO solution of the inhibitor (2.5 µL) were prepared in the same manner in parallel (n = 3). Furthermore, a blank incubation, in which the enzyme solution was replaced by the buffer used for dissolving the enzyme, was carried out. The relative inhibition values were determined at different inhibitor concentrations and calculated as the ratio of the areas of the 1,3-oxazolidine 15 peaks formed in presence and absence of the test compounds (corrected by the blank value). […] The experiments using benzylamine (7) as substrate were carried out in the same way with the modifications that aliquots (150 µL) of the supernatants obtained after addition of acetonitrile and centrifugation were diluted with water (150 µL) and acetonitrile/aqueous ammonium acetate solution (10 mM, pH 6) (45:55, v/v) was used as eluent at a detection wavelength of 250 nm.

PAO in bovine plasma [2] = target: T1, PAO in bovine plasma; assay: Inhibitor screening with pre-incubation of bovine plasma with the inhibitor (HPLC-UV); assay type: biochemical; settings: for IC50: with pre-incubation of enzyme and inhibitor (15 min, 37 °C), n = 3; for block of substrate transformation, bovine plasma: 10 µM, pre-incubation conditions
Experimental: General procedure for inhibitor screening with pre-incubation of bovine plasma with the inhibitor. To a DMSO solution of the appropriate inhibitor (concentration variable) (2.5 µL) was added a dilution of bovine plasma in PBS (95 µL), prepared by mixing 89 volume parts of PBS with 6 volume parts of bovine plasma. The resulting mixture was pre-incubated at 37 °C for 15 min. Then the incubation was started at 37 °C by addition of a solution of the substrate 4 (10 mM) in DMSO (2.5 µL). After 45 min, the enzyme reaction was terminated by the addition of acetonitrile (100 µL). The samples were further treated and analysed as described above in the inhibition experiments done without pre-incubation. Controls (n = 3) and a blank were prepared analogously. The experiments using benzylamine (7) as substrate were carried out in the same way with the modifications that aliquots (150 µL) of the supernatants obtained after addition of acetonitrile and centrifugation were diluted with water (150 µL), and acetonitrile/aqueous ammonium acetate solution (10 mM, pH 6) (45:55, v/v) was used as eluent at a detection wavelength of 250 nm.

purified bovine PAO [3] = target: T2, purified bovine PAO (Bos taurus, UniProt Q29437); parameters: method as in PMID 27129976; settings: without pre-incubation, n = 3, cited from earlier work
T2 construct: bovine PAO purified from bovine plasma; purchased Abnova, Taipei, Taiwan delivered via Biozol, Eching, Germany; host or cells: bovine plasma
T2 sequence (Q29437 17-762): T1 sequence (Q29437 17-762)

purified PAO [4] = target: T3, purified PAO (Bos taurus, UniProt Q29437); parameters: method as in PMID 29550344; settings: after pre-incubation 15 min, read-out: IC50, purified enzyme, cited from earlier work
T3 construct: we used the enzyme isolated and purified from bovine plasma; host or cells: bovine plasma
T3 sequence (Q29437 17-762): T1 sequence (Q29437 17-762)

purified bovine PAO [5] = target: T2, purified bovine PAO; assay: Inhibition of purified bovine PAO without pre-incubation (HPLC-UV); assay type: biochemical; settings: substrate 3-(5-phenyl-2H-tetrazol-2-yl)propan-1-amine (1), n = 3
Experimental: Determination of the IC50-values of the PAO inhibitor 2-(4-phenylphenyl)acetohydrazide (16) with bovine plasma using different substrates. The IC50-values were measured as described previously (without pre-incubation),[33] with the modification that the solution of the isolated PAO in PBS (0.19 mg/mL) (95 µL) was replaced by PBS (89 µL) and bovine plasma (6 µL).
To evaluate the comparability of inhibition data obtained with the purified enzyme and the crude plasma, we measured the inhibition values of the known PAO inhibitor 2-(4-phenylphenyl)acetohydrazide (16) (for formula see Table 3) using the different amine substrates 1–7. In these experiments, the enzyme was added to a solution containing both substrate and inhibitor. Thus, no pre-incubation of enzyme with the inhibitor took place. […] This may be due to the binding of the inhibitor to plasma proteins leading to a somewhat reduced effective concentration. In addition, consistent differences in the apparent inhibitory potency of the inhibitor 16 in dependence of the substrate applied could be registered for both enzyme preparations. The reason for these fluctuating values lies in strongly different binding affinities of the substrates to the enzyme as discussed recently. […]

purified bovine PAO [6] = target: T2, purified bovine PAO; parameters: method as in PMID 27129976, PMID 29550344; settings: substrate 250 µM, 18 µg purified PAO in final volume 100 µL; mean ± SD, n = 3; cited from earlier work
PAO in bovine plasma [7] = target: T1, PAO in bovine plasma; assay: Conversion of amine substrates by bovine plasma (HPLC-UV); assay type: biochemical; settings: substrate 250 µM, 6 µL bovine plasma in final volume 100 µL; mean ± SD, n = 3
Experimental: Determination of the conversion rates of different amine substrates by bovine plasma. The conversion rates of the amine substrates 1–7 to the corresponding aldehydes 8–14 by bovine plasma was measured as described previously, with the modification that the solution of the isolated PAO in PBS (0.19 mg/mL) (95 µL) was replaced by PBS (89 µL) and bovine plasma (6 µL).

DAO = tested on: DAO; parameters: method as in PMID 29550344; settings: 10 µM; pre-incubation conditions; cited from earlier work
purified PAO [8] = target: T3, purified PAO; assay: Inhibition of purified PAO after pre-incubation of enzyme with inhibitor; assay type: biochemical, bovine; settings: 10 µM; pre-incubation conditions
Description: 2-(4-Phenylphenyl)acetohydrazide (16) is known to inhibit PAO by forming covalent bonds with the cofactor topaquinone.
Finally, we wanted to confirm that the amine oxidases MAO A, MAO B, and DAO are not involved in substrate conversion by bovine plasma using specific inhibitorsof these enzymes.

MAO A = tested on: MAO A; parameters: method as in PMID 29550344; settings: 0.1 µM; pre-incubation conditions; cited from earlier work
[9] = substrate benzylamine (7), without pre-incubation of enzyme and inhibitor
[10] = substrate hexan-1-amine 4, without pre-incubation of enzyme and inhibitor

## NNC(=O)Cc1ccc(-c2ccccc2)cc1 [Compound 16, 2-(4-phenylphenyl)acetohydrazide]
PAO in bovine plasma [1]; substrate 4-(5-phenyl-2H-tetrazol-2-yl)butan-1-amine (2), without pre-incubation
  IC50: 5.3 ± 0.49 µM
PAO in bovine plasma [1]; substrate 5-(5-phenyl-2H-tetrazol-2-yl)pentan-1-amine (3), without pre-incubation
  IC50: 9.7 ± 0.78 µM
PAO in bovine plasma [1]; substrate 8-(5-phenyl-2H-tetrazol-2-yl)octan-1-amine (6), without pre-incubation
  IC50: 16 ± 3.4 µM
PAO in bovine plasma [1]; [9]
  IC50: 0.29 ± 0.07 µM
PAO in bovine plasma [1]; [10]
  IC50: 17 ± 0.8 µM
PAO in bovine plasma [2]; substrate benzylamine
  IC50: 130 ± 30 nM
PAO in bovine plasma [2]; substrate hexan-1-amine 4
  IC50: 230 ± 40 nM
Purified bovine PAO [3]; substrate 4-(5-phenyl-2H-tetrazol-2-yl)butan-1-amine (2)
  IC50: 2.5 ± 0.3 µM
Purified bovine PAO [3]; substrate 5-(5-phenyl-2H-tetrazol-2-yl)pentan-1-amine (3)
  IC50: 5.4 ± 0.09 µM
Purified bovine PAO [3]; substrate 6-(5-phenyl-2H-tetrazol-2-yl)hexan-1-amine (4)
  IC50: 11 ± 1.2 µM
Purified bovine PAO [3]; substrate 8-(5-phenyl-2H-tetrazol-2-yl)octan-1-amine (6)
  IC50: 11 ± 0.85 µM
Purified bovine PAO [3]; substrate benzylamine (7)
  IC50: 0.12 ± 0.03 µM
Purified PAO [4]; substrate 4
  IC50: 290 nM
Purified PAO [4]; substrate benzylamine
  IC50: 110 nM
Purified bovine PAO [5]
  IC50: 53 ± 3 µM

## NCc1ccccc1 [Compound 7, Benzylamine]
Purified bovine PAO [6]
  Conversion of substrate, Purified PAO: 20 ± 2.1%
PAO in bovine plasma [7]
  Conversion of substrate, Bovine plasma: 30 ± 2.0%

## NCCCCn1nnc(-c2ccccc2)n1 [Compound 2, 4-(5-Phenyl-2H-tetrazol-2-yl)butan-1-amine]
Purified bovine PAO [6]
  Conversion of substrate, Purified PAO: 55 ± 2.6%
PAO in bovine plasma [7]
  Conversion of substrate, Bovine plasma: 66 ± 5.6%

## NCCCCCn1nnc(-c2ccccc2)n1 [Compound 3, 5-(5-Phenyl-2H-tetrazol-2-yl)pentan-1-amine]
Purified bovine PAO [6]
  Conversion of substrate, Purified PAO: 45 ± 1.3%
PAO in bovine plasma [7]
  Conversion of substrate, Bovine plasma: 51 ± 4.3%

## NCCCCCCCCn1nnc(-c2ccccc2)n1 [Compound 6, 8-(5-Phenyl-2H-tetrazol-2-yl)octan-1-amine]
Purified bovine PAO [6]
  Conversion of substrate, Purified PAO: 25 ± 1.2%
PAO in bovine plasma [7]
  Conversion of substrate, Bovine plasma: 26 ± 1.8%

## NC(=Nc1ccccc1)NC(=O)c1nc(Cl)c(N)nc1N [phenamil]
DAO
  inhibition of DAO: 43%
Purified PAO [8]
  block of substrate transformation, purified PAO: neither of these compounds blocked the substrate transformation
PAO in bovine plasma [2]
  block of substrate transformation, bovine plasma: neither of these compounds blocked the substrate transformation

## NCCCCCCn1nnc(-c2ccccc2)n1 [Compound 4, 6-(5-Phenyl-2H-tetrazol-2-yl)hexan-1-amine]
Purified bovine PAO [6]
  Conversion of substrate, Purified PAO: 57 ± 1.4%
PAO in bovine plasma [7]
  Conversion of substrate, Bovine plasma: 51 ± 1.5%

## NCCCCCCCn1nnc(-c2ccccc2)n1 [Compound 5, 7-(5-Phenyl-2H-tetrazol-2-yl)heptan-1-amine]
Purified bovine PAO [6]
  Conversion of substrate, Purified PAO: 30 ± 1.1%
PAO in bovine plasma [7]
  Conversion of substrate, Bovine plasma: 23 ± 2.1%

## NCCCn1nnc(-c2ccccc2)n1 [Compound 1, 3-(5-Phenyl-2H-tetrazol-2-yl)propan-1-amine]
Purified bovine PAO [6]
  Conversion of substrate, Purified PAO: 12 ± 0.8%
PAO in bovine plasma [7]
  Conversion of substrate, Bovine plasma: 5 ± 0.8%

## C#CCN(C)CCCOc1ccc(Cl)cc1Cl [clorgiline]
Purified PAO [8]
  block of substrate transformation, purified PAO: neither of these compounds blocked the substrate transformation
PAO in bovine plasma [2]
  block of substrate transformation, bovine plasma: neither of these compounds blocked the substrate transformation
MAO A
  reduction of MAO A activity: more than 95%

## C#CCN(C)[C@H](C)Cc1ccccc1 [selegiline]
Purified PAO [8]
  block of substrate transformation, purified PAO: neither of these compounds blocked the substrate transformation
PAO in bovine plasma [2]
  block of substrate transformation, bovine plasma: neither of these compounds blocked the substrate transformation

## NNC(=O)Cc1cccc(-c2ccccc2)c1 [Compound 18, 2-(3-Phenylphenyl)acetohydrazide]
PAO in bovine plasma [1]; [9]
  IC50: 0.62 ± 0.05 µM
PAO in bovine plasma [1]; [10]
  IC50: 20 ± 1 µM
PAO in bovine plasma [2]; substrate benzylamine
  IC50: 240 ± 30 nM
PAO in bovine plasma [2]; substrate hexan-1-amine 4
  IC50: 380 ± 20 nM
